Series [1] has as its system metastatic prostate cancer. As to conditions: advanced metastatic prostate cancer patients; cited from earlier work.
Series [2] relates to mice bearing PSMA-expressing LNCAP cancer xenografts. Briefly: Biodistribution of 68Ga-labeled compounds. Format: in vivo. A digest of the protocol: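 NOD-SCID IL2RγKO male mice carried subcutaneous LNCaP xenografts grown to 5-8 mm over 5-6 weeks. Organs and blood were collected at 1 or 3 h after injection of the radiotracer and gamma-counted. Uptake was normalized to injected dose via a standard curve and expressed as %ID/g.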

In series [3] the test system is mice bearing LNCaP tumor xenografts. In words: PET/CT imaging of 68Ga-labeled compounds. Format: in vivo. As to conditions: for change of tumor uptake from 1 h to 3 h post-injection: PET/CT images; for blood retention (qualitative): PET/CT images at 1 h and 3 h post-injection, comparison within the figure. Put shortly: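 Male NOD SCID IL2Rγ KO mice bore subcutaneous LNCaP xenografts (1×10^7 cells, tumours 5-8 mm) and received 6-8 MBq tracer via tail vein under 2% isoflurane. At 50 min p.i., a 10-min CT and a 10-min static PET were acquired. For the 3 h time point, scanning began at 170 min p.i. with a 15-min static PET.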

In series [4] the target is T1, PSMA on LNCaP cells (Homo sapiens, UniProt Q04609).
T1 construct: endogenous in cells; host or cells: LNCaP prostate cancer cells
In words: In vitro competition binding assay (displacement of 18F-DCFPyL). As to conditions: for Ki: inhibition of 18F-DCFPyL binding to PSMA on LNCaP cells, n=3. On the procedure: 1.14 In Vitro Competition Binding Assay
In vitro competition binding assays were conducted as previously reported using LNCaP prostate cancer cells and ^18F-DCFPyL as the radioligand. ^18 Briefly, LNCaP cells (400,000/well) were plated onto a 24-well poly-D-lysine coated plate for 48 h. Growth media was removed and replaced with HEPES buffered saline (50 mM HEPES, pH 7.5, 0.9% sodium chloride) and the cells were incubated for 1 h at 37° C. ^18F-DCFPyL (0.1 nM) was added to each well (in triplicate) containing various concentrations ([…]) of tested compounds (Lu-PSMA-617 or Lu-HTK01169). Non-specific binding was determined in the presence of 10 μM non-radiolabeled DCFPyL. The assay mixtures were further incubated for 1 h at 37° C. with gentle agitation. Then, the buffer and hot ligand were removed, and cells were washed twice with cold HEPES buffered saline. To harvest the cells, 400 μL of 0.25% trypsin solution was added to each well. Radioactivity was measured on a PerkinElmer (Waltham, Mass.) Wizard2 2480 automatic gamma counter. Nonlinear regression analyses and Ki calculations were performed using the GraphPad Prism 7 software.
(Displacement assays read how much labelled ligand stays bound in the presence of the test substance.)

The values below come from patent US20200339625A1, “NOVEL RADIOMETAL-BINDING COMPOUNDS FOR DIAGNOSIS OR TREATMENT OF PROSTATE SPECIFIC MEMBRANE ANTIGEN-EXPRESSING CANCER” (PROVINCIAL HEALTH SERVICES AUTHORITY, priority 2017, published 2020).

T1 sequence (Q04609 whole entry): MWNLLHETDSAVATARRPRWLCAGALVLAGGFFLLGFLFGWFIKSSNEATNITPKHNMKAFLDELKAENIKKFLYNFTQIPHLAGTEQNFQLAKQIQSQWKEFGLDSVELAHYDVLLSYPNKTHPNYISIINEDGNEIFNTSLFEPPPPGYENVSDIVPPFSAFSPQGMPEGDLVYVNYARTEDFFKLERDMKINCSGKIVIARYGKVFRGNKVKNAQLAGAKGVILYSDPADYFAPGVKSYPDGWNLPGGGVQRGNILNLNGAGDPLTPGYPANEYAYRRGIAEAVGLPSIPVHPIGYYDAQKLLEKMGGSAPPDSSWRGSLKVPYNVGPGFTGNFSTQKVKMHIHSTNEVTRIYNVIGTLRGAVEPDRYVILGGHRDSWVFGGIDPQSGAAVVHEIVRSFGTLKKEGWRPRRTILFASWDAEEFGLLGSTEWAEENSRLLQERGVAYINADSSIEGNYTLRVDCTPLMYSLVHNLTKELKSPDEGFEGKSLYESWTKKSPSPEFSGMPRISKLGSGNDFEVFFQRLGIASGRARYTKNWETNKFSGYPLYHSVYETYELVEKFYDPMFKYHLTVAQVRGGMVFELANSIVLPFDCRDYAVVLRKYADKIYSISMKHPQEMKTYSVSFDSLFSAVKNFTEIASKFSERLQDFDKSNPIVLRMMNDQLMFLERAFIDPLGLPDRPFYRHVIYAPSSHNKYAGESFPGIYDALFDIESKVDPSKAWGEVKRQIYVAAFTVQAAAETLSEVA

Take `O=C([O-])CC[C@H](NC(=O)N[C@@H](CCCCNC(=O)[C@H](Cc1ccc2ccccc2c1)NC(=O)[C@H]1CC[C@H](CNC(=O)CN2CCN(CC(=O)[O-])CCN(CC(=O)[O-])CCN(CC(=O)[O-])CC2)CC1)C(=O)[O-])C(=O)[O-].[225Ac].[H+].[H+].[H+]` [^225Ac-PSMA-617]: the response entry in series [1] was “impressive responses”.
In series [2] (1 h post-injection), `O=C([O-])CN1CCN(CC(=O)[O-])CCN(CC(=O)NCCCC[C@H](NC(=O)CNC(=O)CCCc2ccccc2)C(=O)NC[C@H]2CC[C@H](C(=O)N[C@@H](Cc3ccc4ccccc4c3)C(=O)NCCCC[C@H](NC(=O)N[C@@H](CCC(=O)O)C(=O)O)C(=O)O)CC2)CCN(CC(=O)[O-])CC1.[68Ga+3]` [^68Ga-HTK03056] yielded an Adrenal glands uptake of 3.78 ± 0.46 % ID/g, a Blood uptake of 4.68 ± 1.09 % ID/g, a Bone uptake of 0.76 ± 0.14 % ID/g and a Brain uptake of 0.10 ± 0.03 % ID/g. In series [2] (1 h post-injection), this compound showed a Fat uptake of 0.87 ± 0.53 % ID/g, a Heart uptake of 1.29 ± 0.34 % ID/g, an Intestine uptake of 0.60 ± 0.14 % ID/g and a Kidneys uptake of 123 ± 30.4 % ID/g. Further, in series [2] (1 h post-injection), the Lacrimal uptake was 1.35 ± 0.43 % ID/g, the Liver uptake was 1.02 ± 0.34 % ID/g, the Lungs uptake was found to be 3.28 ± 0.85 % ID/g and the Muscle uptake is reported as 0.53 ± 0.11 % ID/g. Moreover, in series [2] (1 h post-injection), the Pancreas uptake was determined as 0.85 ± 0.15 % ID/g, the Salivary uptake turned out to be 3.34 ± 0.89 % ID/g, the Seminal uptake is on record as 0.74 ± 0.39 % ID/g and the Spleen uptake came out at 3.92 ± 0.88 % ID/g. In series [2] (1 h post-injection), this compound came in with a Stomach uptake of 0.27 ± 0.10 % ID/g, a Tail uptake of 1.43 ± 0.34 % ID/g, a Testes uptake of 0.98 ± 0.22 % ID/g and a Thyroid uptake of 1.49 ± 0.44 % ID/g. Moreover, in series [2] (1 h post-injection), the Tumor uptake turned out to be 25.9 ± 3.21 % ID/g, the “Tumor:Blood ratio” value is on record as 5.67 ± 0.97, the “Tumor:Muscle ratio” value was 49.7 ± 5.98 and the “Tumor:kidney ratio” value is 0.22 ± 0.04. The Urine uptake in series [2] (1 h post-injection) is reported as 203 ± 88.0 % ID/g. In series [2] (3 h post-injection), this compound returned an Adrenal glands uptake of 3.95 ± 2.28 % ID/g, a Blood uptake of 1.17 ± 0.36 % ID/g, a Bone uptake of 1.93 ± 1.51 % ID/g and a Brain uptake of 0.12 ± 0.05 % ID/g. Moreover, in series [2] (3 h post-injection), the Fat uptake was 0.58 ± 0.13 % ID/g, the Heart uptake was found to be 0.59 ± 0.26 % ID/g, the Intestine uptake was found to be 0.34 ± 0.04 % ID/g and the Kidneys uptake is on record as 31.1 ± 15.2 % ID/g. In addition, in series [2] (3 h post-injection), the Lacrimal uptake was found to be 3.01 ± 1.26 % ID/g, the Liver uptake was found to be 0.43 ± 0.08 % ID/g, the Lungs uptake was determined as 1.39 ± 0.53 % ID/g and the Muscle uptake amounted to 0.46 ± 0.30 % ID/g. In series [2] (3 h post-injection), this compound yielded a Pancreas uptake of 0.41 ± 0.09 % ID/g, a Salivary uptake of 2.06 ± 1.16 % ID/g, a Seminal uptake of 0.29 ± 0.08 % ID/g and a Spleen uptake of 2.10 ± 1.16 % ID/g. In series [2] (3 h post-injection), this compound came in with a Stomach uptake of 0.14 ± 0.03 % ID/g, a Tail uptake of 0.54 ± 0.22 % ID/g, a Testes uptake of 0.56 ± 0.19 % ID/g and a Thyroid uptake of 0.72 ± 0.29 % ID/g. Besides, in series [2] (3 h post-injection), the Tumor uptake was determined as 32.9 ± 10.9 % ID/g, the “Tumor:Blood ratio” value came to 30.4 ± 13.2, the “Tumor:Muscle ratio” value is 98.6 ± 61.8 and the “Tumor:kidney ratio” value is on record as 1.22 ± 0.53. In series [2] (3 h post-injection), this compound returned a Urine uptake of 275 ± 158 % ID/g. In series [3], the “change of tumor uptake from 1 h to 3 h post-injection” value is “uptake in tumors increases over time” and the “blood retention (qualitative)” value is “some extent of blood retention”.
In the case of `O=C([O-])CN1CCN(CC(=O)[O-])CCN(CC(=O)NCCCC[C@H](NC(=O)[C@H](CCC(=O)O)NC(=O)CCCc2ccc(I)cc2)C(=O)NC[C@H]2CC[C@H](C(=O)N[C@@H](Cc3ccc4ccccc4c3)C(=O)NCCCC[C@H](NC(=O)N[C@@H](CCC(=O)O)C(=O)O)C(=O)O)CC2)CCN(CC(=O)[O-])CC1.[Lu+3]` [Lu-HTK01169], the affinity in series [4] corresponds to a Ki of 0.04 ± 0.01 nM. Besides, in series [4] (ratio of Ki values), the “improvement in PSMA binding compared to Lu-PSMA-617” value was found to be 6 fold.
In series [2] (1 h post-injection), `O=C([O-])CN1CCN(CC(=O)[O-])CCN(CC(=O)NCCCC[C@H](NC(=O)CNC(=O)CCCc2ccc(Cl)cc2)C(=O)NC[C@H]2CC[C@H](C(=O)N[C@@H](Cc3ccc4ccccc4c3)C(=O)NCCCC[C@H](NC(=O)N[C@@H](CCC(=O)O)C(=O)O)C(=O)O)CC2)CCN(CC(=O)[O-])CC1.[68Ga+3]` [^68Ga-HTK03055] showed an Adrenal glands uptake of 5.51 ± 1.56 % ID/g, a Blood uptake of 22.1 ± 2.04 % ID/g, a Bone uptake of 1.59 ± 0.44 % ID/g and a Brain uptake of 0.29 ± 0.04 % ID/g. In series [2] (1 h post-injection), this compound gave a Fat uptake of 2.20 ± 0.41 % ID/g, a Heart uptake of 5.20 ± 0.59 % ID/g, an Intestine uptake of 1.52 ± 0.21 % ID/g and a Kidneys uptake of 31.1 ± 4.40 % ID/g. In series [2] (1 h post-injection), this compound showed a Lacrimal uptake of 1.82 ± 1.46 % ID/g, a Liver uptake of 3.35 ± 1.08 % ID/g, a Lungs uptake of 8.37 ± 1.10 % ID/g and a Muscle uptake of 1.60 ± 0.19 % ID/g. Besides, in series [2] (1 h post-injection), the Pancreas uptake is on record as 2.02 ± 0.32 % ID/g, the Salivary uptake stood at 3.87 ± 0.70 % ID/g, the Seminal uptake turned out to be 1.19 ± 0.18 % ID/g and the Spleen uptake worked out at 3.05 ± 0.63 % ID/g. In series [2] (1 h post-injection), this compound had a Stomach uptake of 0.62 ± 0.09 % ID/g, a Tail uptake of 4.42 ± 0.76 % ID/g, a Testes uptake of 2.54 ± 0.34 % ID/g and a Thyroid uptake of 4.20 ± 0.53 % ID/g. In series [2] (1 h post-injection), the Tumor uptake is on record as 17.2 ± 1.67 % ID/g, the “Tumor:Blood ratio” value is 0.78 ± 0.04, the “Tumor:Muscle ratio” value amounted to 10.8 ± 1.15 and the “Tumor:kidney ratio” value amounted to 0.56 ± 0.06. The compound further had a Urine uptake in series [2] (1 h post-injection) of 14.6 ± 10.9 % ID/g. In series [2] (3 h post-injection), the Adrenal glands uptake is recorded as 6.45 ± 1.03 % ID/g, the Blood uptake was found to be 17.4 ± 1.15 % ID/g, the Bone uptake came out at 2.11 ± 0.62 % ID/g and the Brain uptake is 0.28 ± 0.06 % ID/g. Moreover, in series [2] (3 h post-injection), the Fat uptake is on record as 2.12 ± 0.69 % ID/g, the Heart uptake is given as 3.89 ± 0.40 % ID/g, the Intestine uptake is 1.29 ± 0.18 % ID/g and the Kidneys uptake came out at 35.6 ± 7.23 % ID/g. For the same compound, in series [2] (3 h post-injection), the Lacrimal uptake is recorded as 4.14 ± 3.82 % ID/g, the Liver uptake is listed as 2.96 ± 0.56 % ID/g, the Lungs uptake was 7.50 ± 1.05 % ID/g and the Muscle uptake came out at 1.26 ± 0.18 % ID/g. In series [2] (3 h post-injection), this compound yielded a Pancreas uptake of 1.74 ± 0.30 % ID/g, a Salivary uptake of 3.57 ± 1.07 % ID/g, a Seminal uptake of 1.07 ± 0.12 % ID/g and a Spleen uptake of 3.07 ± 0.78 % ID/g. Further, in series [2] (3 h post-injection), the Stomach uptake came out at 0.59 ± 0.13 % ID/g, the Tail uptake is listed as 3.52 ± 0.65 % ID/g, the Testes uptake came out at 2.63 ± 0.49 % ID/g and the Thyroid uptake is listed as 3.40 ± 0.56 % ID/g. Further, in series [2] (3 h post-injection), the Tumor uptake amounted to 30.1 ± 3.12 % ID/g, the “Tumor:Blood ratio” value was determined as 1.75 ± 0.28, the “Tumor:Muscle ratio” value was 24.5 ± 5.08 and the “Tumor:kidney ratio” value stood at 0.88 ± 0.22. In addition, in series [2] (3 h post-injection), the Urine uptake was found to be 33.8 ± 22.3 % ID/g. In series [3], the “change of tumor uptake from 1 h to 3 h post-injection” value is given as “uptake in tumors increases over time” and the “blood retention (qualitative)” value is listed as “some extent of blood retention”.
In the case of `O=C([O-])CN1CCN(CC(=O)[O-])CCN(CC(=O)NCC2CCC(C(=O)N[C@@H](Cc3ccc4ccccc4c3)C(=O)NCCCC[C@H](NC(=O)N[C@@H](CCC(=O)O)C(=O)O)C(=O)O)CC2)CCN(CC(=O)[O-])CC1.[Lu+3]` (stereo partly drawn) [Lu-PSMA-617, reference compound], the Ki (commonly the equilibrium dissociation constant of an inhibitor or competing ligand from its target) in series [4] came to 0.24 ± 0.06 nM.
